# Experimental data taken from the supplement of paper PMC10307832.
# Assays:
# Experiment in all cases: relative viability (nuclei count vs DMSO), 5 days (fraction); higher = more cells survive
# Docetaxel = compound: CC(=O)O[C@@]12CO[C@@H]1C[C@H](O)[C@@]1(C)C(=O)[C@H](O)C3=C(C)[C@@H](OC(=O)[C@H](O)[C@@H](NC(=O)OC(C)(C)C)c4ccccc4)C[C@@](O)([C@@H](OC(=O)c4ccccc4)[C@H]21)C3(C)C [Docetaxel]
# Summary of the method: (§1)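 Lung cancer cell lines in 1536-well plates were kept overnight at 37 °C, then pinned with five library-drug doses (not always all listed) spaced by √10 on vehicle-anchored plates. After 5 days without medium change, cells were fixed, permeabilised and Hoechst-stained in one step, imaged at 4×, and nuclei were counted with MetaXpress. Viability is treated-well nuclei divided by vehicle-well nuclei, taken as the median over plates. Plates passed only with control CV below 25% and at least one doubling.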
# Tivozanib = compound: COc1cc2nccc(Oc3ccc(NC(=O)Nc4cc(C)on4)c(Cl)c3)c2cc1OC [Tivozanib]
# Summary of the method: as §1
# [1] = compound: Cc1cnc(-c2cnc(NCCNc3ccc(C#N)cn3)nc2-c2ccc(Cl)cc2Cl)[nH]1
# Summary of the method: as §1
# JQ1 = compound: Cc1sc2c(c1C)C(c1ccc(Cl)cc1)=N[C@@H](CC(=O)OC(C)(C)C)c1nnc(C)n1-2 [JQ1]
# Summary of the method: as §1
# Cytarabine = compound: Nc1ccn([C@@H]2O[C@H](CO)[C@@H](O)[C@@H]2O)c(=O)n1 [Cytarabine]
# Summary of the method: as §1
# CPI-613 = compound: O=C(O)CCCCC(CCSCc1ccccc1)SCc1ccccc1 [CPI-613]
# Summary of the method: as §1
# Pimozide = compound: O=c1[nH]c2ccccc2n1C1CCN(CCCC(c2ccc(F)cc2)c2ccc(F)cc2)CC1 [Pimozide]
# Summary of the method: as §1
Cell Line,relative viability (Docetaxel; 0.0002 µM),relative viability (Docetaxel; 0.000632 µM),relative viability (Docetaxel; 0.002 µM),relative viability (Docetaxel; 0.006325 µM),relative viability (Docetaxel; 0.02 µM),relative viability (Tivozanib; 0.005 µM),relative viability (Tivozanib; 0.01581 µM),relative viability (Tivozanib; 0.05 µM),relative viability (Tivozanib; 0.1581 µM),relative viability (Tivozanib; 0.5 µM),relative viability ([1]; 0.08 µM),relative viability ([1]; 0.253 µM),relative viability ([1]; 0.8 µM),relative viability ([1]; 2.53 µM),relative viability (JQ1; 0.04 µM),relative viability (JQ1; 0.1265 µM),relative viability (JQ1; 0.4 µM),relative viability (JQ1; 1.265 µM),relative viability (JQ1; 4 µM),relative viability (Cytarabine; 0.005 µM),relative viability (Cytarabine; 0.01581 µM),relative viability (Cytarabine; 0.05 µM),relative viability (Cytarabine; 0.1581 µM),relative viability (Cytarabine; 0.5 µM),relative viability (CPI-613; 5 µM),relative viability (CPI-613; 15.81 µM),relative viability (CPI-613; 50 µM),relative viability (CPI-613; 158.11 µM),relative viability (CPI-613; 500 µM),relative viability (Pimozide; 0.08 µM),relative viability (Pimozide; 0.253 µM),relative viability (Pimozide; 0.8 µM),relative viability (Pimozide; 2.53 µM),relative viability (Pimozide; 8 µM)
NCI-H838,0.937,0.867,0.393,0.197,0.175,0.957,0.969,1.01,0.736,0.979,0.999,0.93,1.05,1.16,0.961,0.59,0.792,0.436,0.343,0.97,0.964,0.743,0.423,0.293,0.948,0.864,0.883,0.649,0.0946,0.953,0.998,0.93,0.927,0.959
NCI-H1299,0.998,0.975,0.868,0.502,0.37,1.01,1.03,1.03,1.02,0.952,0.968,1.01,1,0.969,0.974,0.851,0.909,0.379,0.308,1.01,1.04,1.01,1.06,1.02,1,0.984,1,0.992,0.973,1.02,0.951,0.977,0.995,0.988
NCI-H1355,0.982,0.91,0.517,0.272,0.227,0.941,0.938,1.05,0.702,0.897,0.995,0.874,0.939,0.907,0.963,0.951,0.917,0.629,0.535,0.89,0.922,0.758,0.489,0.302,0.963,0.95,0.949,0.735,0.0943,0.968,0.964,0.954,0.956,0.907
NCI-H1395,0.933,0.861,0.676,0.39,0.268,0.738,1.04,1,0.736,0.677,1.08,0.84,0.818,0.837,0.849,0.734,0.702,0.516,0.547,0.826,0.775,0.567,0.447,0.354,0.993,0.806,0.897,0.84,0.8,0.918,0.84,0.822,0.878,0.918
